Columns and labels:
Format in all cases: in vivo
[1] = system: Alopecurus myosuroides (ALOMY); experiment: Post-emergence glasshouse herbicide test; details: POST Application, 1000 g/h, after 13 days
Procedure: (§1) Seeds of a variety of test species are sown in standard soil in pots (Alopecurus myosuroides (ALOMY), Setaria faberi (SETFA), Echinochloa crus-galli (ECHCG), Solanum nigrum (SOLNI), Amaranthus retoflexus (AMARE), Ipomoea hederacea (IPOHE)). After cultivation for one day (pre-emergence) or after 8 days cultivation (post-emergence) under controlled conditions in a glasshouse (at 24/16° C., day/night; 14 hours light; 65% humidity), the plants are sprayed with an aqueous spray solution derived from the formulation of the technical active ingredient in acetone/water (50:50) solution containing 0.5% Tween 20 (polyoxyethelyene sorbitan monolaurate, CAS RN 9005-64-5). Compounds ae applied at 1000 g/h. The test plants are then grown in a glasshouse under controlled conditions in a glasshouse (at 24/16° C., day/night; 14 hours light; 65% humidity) and watered twice daily. After 13 days for pre and post-emergence, the test is evaluated for the percentage damage caused to the plant. The biological activities are shown in the following table on a five point scale (5=80-100%; 4=60-79%; 3=40-59%; 2=20-39%; 1=0-19%).

[2] = system: Amaranthus retoflexus (AMARE); experiment: Post-emergence glasshouse herbicide test; details: POST Application, 1000 g/h, after 13 days
Procedure: as §1

[3] = system: Echinochloa crus-galli (ECHCG); experiment: Post-emergence glasshouse herbicide test; details: POST Application, 1000 g/h, after 13 days
Procedure: as §1

[4] = system: Ipomoea hederacea (IPOHE); experiment: Post-emergence glasshouse herbicide test; details: POST Application, 1000 g/h, after 13 days
Procedure: as §1

Solanum nigrum (SOLNI) [5] = experiment: Post-emergence glasshouse herbicide test; details: POST Application, 1000 g/h, after 13 days
Procedure: as §1

Setaria faberi (SETFA) [6] = experiment: Post-emergence glasshouse herbicide test; details: POST Application, 1000 g/h, after 13 days
Procedure: as §1, with “Compounds ae applied at 1000 g/h.” left out

[7] = system: Alopecurus myosuroides (ALOMY); experiment: Pre-emergence glasshouse herbicide test; details: PRE Application, 1000 g/h, after 13 days
Procedure: as §1

[8] = system: Amaranthus retoflexus (AMARE); experiment: Pre-emergence glasshouse herbicide test; details: PRE Application, 1000 g/h, after 13 days
Procedure: as §1

[9] = system: Echinochloa crus-galli (ECHCG); experiment: Pre-emergence glasshouse herbicide test; details: PRE Application, 1000 g/h, after 13 days
Procedure: as §1

[10] = system: Ipomoea hederacea (IPOHE); experiment: Pre-emergence glasshouse herbicide test; details: PRE Application, 1000 g/h, after 13 days
Procedure: as §1

Setaria faberi (SETFA) [11] = experiment: Pre-emergence glasshouse herbicide test; details: PRE Application, 1000 g/h, after 13 days
Procedure: as §1

Solanum nigrum (SOLNI) [12] = experiment: Pre-emergence glasshouse herbicide test; details: PRE Application, 1000 g/h, after 13 days
Procedure: as §1

SMILES | percentage damage caused to the plant, ALOMY [1] | percentage damage caused to the plant, AMARE [2] | percentage damage caused to the plant, ECHCG [3] | percentage damage caused to the plant, IPOHE [4] | percentage damage caused to the plant, SOLNI (Solanum nigrum (SOLNI) [5]) | percentage damage caused to the plant, SETFA (Setaria faberi (SETFA) [6]) | percentage damage caused to the plant, ALOMY [7] | percentage damage caused to the plant, AMARE [8] | percentage damage caused to the plant, ECHCG [9] | percentage damage caused to the plant, IPOHE [10] | percentage damage caused to the plant, SETFA (Setaria faberi (SETFA) [11]) | percentage damage caused to the plant, SOLNI (Solanum nigrum (SOLNI) [12])
CSc1ccc(-n2c(=O)c(C(=O)Nc3nnnn3C)nc3ccccc32)cc1 [Compound 5.020] | 5 (5=80-100%) | 5 (5=80-100%) | 5 (5=80-100%) | 5 (5=80-100%) | 5 (5=80-100%) | 2 (2=20-39%) | 1 (1=0-19%) | 5 (5=80-100%) | 3 (3=40-59%) | 3 (3=40-59%) | 1 (1=0-19%) | 5 (5=80-100%)
Cn1nnnc1NC(=O)c1nc2ccccc2n(-c2ccc(Cl)c(Cl)c2)c1=O [Compound 5.035] | 2 (2=20-39%) | 5 (5=80-100%) | 2 (2=20-39%) | 5 (5=80-100%) | 5 (5=80-100%) | 4 (4=60-79%) | 3 (3=40-59%) | 5 (5=80-100%) | 2 (2=20-39%) | 5 (5=80-100%) | 5 (5=80-100%) | 5 (5=80-100%)
Cn1nnnc1NC(=O)c1cc2ccncc2n(-c2ccccc2)c1=O [Compound 8.001] | 1 (1=0-19%) | 5 (5=80-100%) | 4 (4=60-79%) | 3 (3=40-59%) | 5 (5=80-100%) | 1 (1=0-19%) | 1 (1=0-19%) | 5 (5=80-100%) | 1 (1=0-19%) | 1 (1=0-19%) | 1 (1=0-19%) | 2 (2=20-39%)
Cc1nc2c(cc1F)cc(C(=O)Nc1nnnn1C)c(=O)n2-c1ccsc1 [Compound 6.002] | 1 (1=0-19%) | 5 (5=80-100%) | 4 (4=60-79%) | 5 (5=80-100%) | 5 (5=80-100%) | 2 (2=20-39%) | 1 (1=0-19%) | 5 (5=80-100%) | 1 (1=0-19%) | 2 (2=20-39%) | 1 (1=0-19%) | 4 (4=60-79%)
Cn1nnnc1NC(=O)c1nc2ccccc2n(-c2ccc(OC(F)(F)F)cc2)c1=O [Compound 5.030] | 5 (5=80-100%) | 5 (5=80-100%) | 5 (5=80-100%) | 5 (5=80-100%) | 5 (5=80-100%) | 5 (5=80-100%) | 5 (5=80-100%) | 5 (5=80-100%) | 5 (5=80-100%) | 5 (5=80-100%) | 5 (5=80-100%) | 5 (5=80-100%)

From US9179678B2, “Substituted [1,2,4]triazoles and substituted tetrazoles as herbicides” (SYNGENTA LIMITED, priority 2012, dated 2015)
